The target in experiment [1] is T1, binding of His-XIAP(BIR2)-avi fusion protein to GST-RIPK2 fusion protein (RIPK2/XIAP) (Homo sapiens, UniProt O43353).
T1 construct: made in house; host or cells: baculovirus infected Sf9 cells
In words: RIPK2-XIAP binding competition PPI assay (TR-FRET). The conditions noted are these: RIPK2/XIAP binding competition PPI assay; for Emax: Amax, read-out: PPI Amax bin; for IC50: read-out: PPI IC50 bin. The gist of the method: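 Compounds (in DMSO, 100-fold stock) incubated 120 min at 23 °C with 1 nM GST-RIPK2 (aa 1-310) and 25 nM His-XIAP(BIR2 aa 152-231)-avi, plus anti-His-XL665 and anti-GST-Tb, in pH 7.5 Tris buffer. Read-out: 665/520 nm emission ratio. Normalized to no-inhibitor (0%) and 50 nM GSK583 (−100%); Amax binned A–D.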
A general note: TR-FRET usually uses a lanthanide donor and a delayed reading to cut background.

Experiment [2] has as its target T2, GST-RIPK2 fusion protein (human RIPK2, amino acids 1-310) (Homo sapiens, UniProt O43353).
T2 construct: made in house; host or cells: baculovirus infected Sf9 cells
Nature of the experiment: RIPK2 binding competition assay (TR-FRET, Tracer 199 displacement). Conditions: 10 nM Tracer 199, 1 nM GST-RIPK2, read-out: RIPK2 IC50. In short, it runs like this: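 GST-RIPK2 (human aa 1-310, Sf9-expressed; final 1 nM) with Tracer 199 (final 10 nM) and Tb-anti-GST (final 0.5 nM) in Tris pH 7.5 buffer, 45 min at 22 °C. TR-FRET 665/620 nm ratio after 337 nm excitation; normalized to no-inhibitor (0%) and no-protein (−100%), giving IC50.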

The test system of experiment [3] is NF-κB pathway (SEAP) in THP1-Dual cells. In words: THP-1 Dual cell SEAP assay (L18-MDP stimulated). The conditions noted are these: Homo sapiens, THP1-Dual, read-out: NF-κB THP1 IC50 bin. It counts as cell-based. In short, it runs like this:
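THP1-Dual cells (~25,000/well) were preincubated 30 min with serially diluted compounds, then stimulated with 10 ng/mL L18-MDP (final) for 20-24 h at 37 °C. Supernatant SEAP was read with QUANTI-Blue at OD 620-655 nm after 2 h. IC50 came from non-linear fits of % inhibition versus DMSO/L18-MDP controls after media-blank subtraction.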

SMILES strings stand for the structures.

T1 sequence (O43353 1-310 limits assumed): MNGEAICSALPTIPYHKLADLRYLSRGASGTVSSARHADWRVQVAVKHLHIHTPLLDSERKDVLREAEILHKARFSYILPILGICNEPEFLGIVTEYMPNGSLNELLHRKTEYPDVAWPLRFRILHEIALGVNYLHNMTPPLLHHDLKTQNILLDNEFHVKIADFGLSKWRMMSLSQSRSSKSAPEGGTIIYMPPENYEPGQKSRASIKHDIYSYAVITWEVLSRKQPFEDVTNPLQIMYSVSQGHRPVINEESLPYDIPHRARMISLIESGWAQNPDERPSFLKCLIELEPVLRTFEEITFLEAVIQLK
T2 sequence (O43353 1-310): as the sequence (O43353 1-310 limits assumed) above

Turning to `COc1cc2ncc(-c3cc(F)c(OC)c(NS(=O)(=O)c4cn(C)nc4C)c3)n2cc1S(=O)(=O)C(C)(C)C` [Example 279, N-(5-(6-(tert-butylsulfonyl)-7-methoxyimidazo[1,2-a]pyridin-3-yl)-3-fluoro-2-methoxyphenyl)-1,3-dimethyl-1H-pyrazole-4-sulfonamide], the Emax in experiment [1] was greater than 80%. The concentration for half-maximal inhibition (IC50) (commonly the point on the concentration scale where inhibition reaches its midpoint) in experiment [1] is less than 1 nM; in experiment [2], less than 1 nM; in experiment [3], less than 50 nM.

On to `COCC(C)(C)S(=O)(=O)c1cn2c(-c3cc(F)c(N)nc3F)cnc2cc1OC` [Example 167, 3,6-difluoro-5-(7-methoxy-6-((1-methoxy-2-methylpropan-2-yl)sulfonyl)imidazo[1,2-a]pyridin-3-yl)pyridin-2-amine], for which, in experiment [1], the Emax was greater than 80%. Besides, the IC50 in experiment [1] was greater than 20 nM; in experiment [2], greater than 20 nM; in experiment [3], greater than 1000 nM.

Take `C[C@H](O)COc1cc2ncc(-c3cc(F)c(N)nc3F)n2cc1S(=O)(=O)C(C)(C)C` [Example 170, (S)-1-((3-(6-amino-2,5-difluoropyridin-3-yl)-6-(tert-butylsulfonyl)imidazo[1,2-a]pyridin-7-yl)oxy)propan-2-ol]: in experiment [1], the Emax is greater than 80%. For the same compound, the IC50 in experiment [1] lay within 1 to 2.5 nM; in experiment [2] it was 1 to 2.5 nM; in experiment [3] it was 50 to 250 nM.

For the compound `COc1cc2ncc(-c3cccc(NS(=O)(=O)C4CCN(C(=O)OC(C)(C)C)C4)c3)n2cc1S(=O)(=O)C(C)(C)C` (stereo not drawn) [Example 153, tert-butyl 3-(N-(3-(6-(tert-butylsulfonyl)-7-methoxyimidazo[1,2-a]pyridin-3-yl)phenyl)sulfamoyl)pyrrolidine-1-carboxylate], the Emax in experiment [1] was greater than 80%. In addition, the IC50 in experiment [1] was greater than 20 nM; in experiment [2], 2.5 to 20 nM; in experiment [3] it was greater than 1000 nM.

Turning to `CC(C)(C)S(=O)(=O)c1cn2c(-c3cc(F)c(N)nc3F)cnc2cc1OC1COC1` [Example 33, 5-(6-(tert-butylsulfonyl)-7-(oxetan-3-yloxy)imidazo[1,2-a]pyridin-3-yl)-3,6-difluoropyridin-2-amine], in experiment [1], the Emax is greater than 80%. Further, the IC50 in experiment [1] is 2.5 to 20 nM; in experiment [2], 2.5 to 20 nM; in experiment [3], greater than 1000 nM.

Regarding `COc1cc2ncc(-c3cc(F)c(OC)c(NC(=O)c4cnn(C)c4)c3)n2cc1S(=O)(=O)C(C)(C)C` [Example 296, N-(5-(6-(tert-butylsulfonyl)-7-methoxyimidazo[1,2-a]pyridin-3-yl)-3-fluoro-2-methoxyphenyl)-1-methyl-1H-pyrazole-4-carboxamide], the Emax in experiment [1] was greater than 80%. Moreover, the values for the half-inhibitory concentration (IC50) in experiment [1], in experiment [2] and in experiment [3] were greater than 20 nM, greater than 20 nM and greater than 1000 nM, respectively.

`COc1cc2ncc(-c3cnn4ncccc34)n2cc1S(=O)(=O)C(C)(C)C` [Example 114, 3-(6-(tert-butylsulfonyl)-7-methoxyimidazo[1,2-a]pyridin-3-yl)pyrazolo[1,5-b]pyridazine]: the Emax in experiment [1] is less than 30%. For the same compound, the IC50 was greater than 20 nM in experiment [1], greater than 20 nM in experiment [2] and greater than 1000 nM in experiment [3].

Turning to `CCS(=O)(=O)c1cn2c(-c3cc(F)c(OC)c(NS(=O)(=O)c4cnn(C)c4)c3)cnc2cc1OC` [Example 242, N-(5-(6-(ethylsulfonyl)-7-methoxyimidazo[1,2-a]pyridin-3-yl)-3-fluoro-2-methoxyphenyl)-1-methyl-1H-pyrazole-4-sulfonamide], in experiment [1], the Emax was greater than 80%. The values for the 50% inhibitory concentration (IC50) in experiment [1], in experiment [2] and in experiment [3] were less than 1 nM, less than 1 nM and 50 to 250 nM, respectively.

For `Cn1ccc(COc2cc3ncc(-c4cc(F)c(N)nc4F)n3cc2S(=O)(=O)C(C)(C)C)n1` [Example 25, 5-(6-(tert-butylsulfonyl)-7-((1-methyl-1H-pyrazol-3-yl)methoxy)imidazo[1,2-a]pyridin-3-yl)-3,6-difluoropyridin-2-amine], the Emax in experiment [1] is greater than 80%. Also, the IC50 in experiment [1] is 2.5 to 20 nM; in experiment [2], 2.5 to 20 nM; in experiment [3] it was 250 to 1000 nM.
